Experimental data reported in patent publication US20250143933A1, “ENDOSCOPIC, PERCUTANEOUS AND OTHER METHODS FOR DISSOLUTION OF PANCREATIC NECROSIS” (The Johns Hopkins University, priority 2021, published 2025).

Columns and labels:
[1] = cited from earlier work
[2] = previous attempts, literature; cited from earlier work
[3] = concentrations higher than 30%; cited from earlier work
[4] = Ex vivo dissolution of solid WON debris by candidate debridement compounds; design: species or system human
Procedure: To perform preliminary proof-of-concept testing, solid WON debris was collected from seven patients undergoing endoscopic necrosectomy. […] Several candidate compounds that might be suitable, alone or in combination, for WON debris dissolution were identified. The candidate debridement compounds were tested on ex vivo samples to assess their capacity for dissolving WON debris.

**Q.** With `[O][Cl+][O-]` [Chlorine dioxide, reference compound] as the compound, how does the “Effect compared to 5.8% NaOCl” value ([1]; chlorine dioxide 13.8%) read?
**A.** shown to be similar

**Q.** For `OO` [Hydrogen peroxide, reference compound], which “Success as chemical dissolution agent to aid endoscopic necrosectomy” value (shortened to “Success as chemical dissolution agent”) [2] is on record?
**A.** minimal success

**Q.** What about the “Toxicity (local damage)” value [3] of the same compound?
**A.** shown to be toxic

**Q.** What does the source list for `OCl` [NaOCl, Sodium hypochlorite]?
**A.** Pulp dissolution ([1]; 8.25% NaOCl, dental surgery studies (Cullen et al., 2015)): rapid pulp dissolution; Solvent properties in WON samples ([4]; ex vivo, concentration of 5% (FIG. 4)): excellent solvent properties; Time to breakdown of human pancreas necrosis debris ([4]; petri dish, dilute sodium hypochlorite 2.5% (FIG. 4)): within minutes

**Q.** With `CC(C)=O` [acetone, reference compound] as the compound, how does the “Effect on WON debris (dissolution)” value ([4]; ex vivo samples from patients undergoing endoscopic necrosectomy, lipophilic solvent) read?
**A.** minimal to no effect

**Q.** Which “Success as chemical dissolution agent” value [2] does the source give for “streptokinase: previously tried chemical dissolution agent to aid endoscopic necrosectomy” here?
**A.** minimal success

**Q.** With “tissue plasminogen activator: previously tried chemical dissolution agent to aid endoscopic necrosectomy” as the compound, how does the “Success as chemical dissolution agent” value [2] read?
**A.** minimal success
